Experimental data reported in patent US20250282768A1 (Janssen Pharmaceutica NV, priority 2022, published 2025).

Tested on: p-IKKa levels in L363 (NIK translocated multiple myeloma) cells
Test: Assay 2: Effect of compounds on p-IKKa levels in L363 (NIK translocated multiple myeloma) cells
Assay type: cell-based
Details: Homo sapiens, L-363, 6 h, read-out: Assay 2 IC50 (nM), p-IKKa (Ser 176/180) in BAFF stimulated L363 cells with MG132, 6 h; average if tested more than once
Description: Assay 2: Effect of Compounds on p-IKKa Levels in L363 (NIK Translocated Multiple Myeloma) Cells
All compounds tested were dissolved and serially diluted in DMSO, 1:3 dilution for 11 points in an Echo compatible plate. 100% DMSO was added to columns 12 and 24 of the plate to serve as high and low signal controls. This compound plate was used to spot 20 nL of compound or DMSO into a Greiner 384 well TC plate (781080). The final DMSO concentration was 0.3% (v/v) in cell assays. Human L363 cells (ATCC) were cultured in RPM11640 medium supplemented with GlutaMax, non-essential amino acids, sodium pyruvate and 10% fetal bovine serum. Cells were routinely maintained at densities of 0.2×10^6 cells per ml—2×10^6 cells per mL at 37° C. in a humidified 5% CO2 atmosphere incubator. Cells were passaged twice a week splitting back to obtain the low density. The day before the assay, cells were washed twice in HBSS (Hank's Balanced Salt Solution), resuspended in Dulbecco's Modified Eagle Medium (DMEM)+0.5% IgG and protease free BSA (Jackson Immuno Research Laboratories), +/−250 ng/ml recombinant human B-cell activating factor (BAFF/BLyS/TNFSF13B) and incubated overnight at 37° C. in a humidified 5% CO2 atmosphere (bulk stimulation with or without BAFF). The next day, the cell concentration was adjusted to 1×10^7 cells/ml in DMEM+/−250 ng/ml BAFF +/−10 μM MG132 and plated at 10 μl/well into compound or DMSO spotted 384 well TC plates. Seeded cells were incubated at 37° C. in a humidified 5% CO2 atmosphere for 6 h. After 6 h, the plates were removed from the incubator and cell lysis was achieved by the addition of 2.5 μl 5×lysis buffer containing protease and phosphatase inhibitors, followed by shaking on a plate shaker at room temperature for 15 min. At the end of this incubation, lysed cells were sequentially treated and incubated with acceptor and donor bead mixes according to the manufacturer's protocol for a 1 plate/2-incubation suspension cell assay (AlphaLISA SureFire Ultra p-IKKa (Ser 176/180) Assay Kit (Perkin Elmer). Plates were read using an EnVision Multilabel Plate Reader (Perkin Elmer). Within an experiment, a concentration response curve for each compound was run in duplicate. The signal obtained in the test wells was normalized using high signal (BAFF stimulated cells, DMSO, MG132) and low signal (unstimulated cells, DMSO) controls. To determine the IC50, a sigmoidal curve was fitted to the plot of % inhibition versus Log10 compound concentration.

SMILES | IC50 [nM]
COc1cn([C@H]2C[C@@H](O)C2)nc1Nc1nccc(-c2cccc(-c3cc([C@]4(O)CCN(C)C4=O)on3)n2)n1 [Example 230, (R)-3-Hydroxy-3-(3-(6-(2-((1-((1s,3s)-3-hydroxycyclobutyl)-4-methoxy-1H-pyrazol-3-yl)amino)pyrimidin-4-yl)pyridin-2-yl)isoxazol-5-yl)-1-methylpyrrolidin-2-one] | < 50
Cc1cc(Nc2nccc(-c3cccc(-c4cc([C@]5(O)CCN(C)C5=O)on4)n3)n2)nn1C [Example 282, (R)-3-(3-(6-(2-((1,5-Dimethyl-1H-pyrazol-3-yl)amino)pyrimidin-4-yl)pyridin-2-yl)isoxazol-5-yl)-3-hydroxy-1-methylpyrrolidin-2-one] | < 50
CN1CC[C@@](O)(c2cc(-c3cccc(-c4ccnc(Nc5ncccc5F)n4)n3)no2)C1=O [Example 331, (R)-3-(3-(6-(2-((3-Fluoropyridin-2-yl)amino)pyrimidin-4-yl)pyridin-2-yl)isoxazol-5-yl)-3-hydroxy-1-methylpyrrolidin-2-one] | > 500
CN1C(=O)[C@](O)(c2cc(-c3cccc(-c4ccnc(Nc5ccn(C)n5)n4)n3)no2)C[C@H]1C(F)(F)F [Example 1, (3R,5S)-3-Hydroxy-1-methyl-3-(3-(6-(2-((1-methyl-1H-pyrazol-3-yl)amino)pyrimidin-4-yl)pyridin-2-yl)isoxazol-5-yl)-5-(trifluoromethyl)pyrrolidin-2-one] | 50 to 500
CN1CC[C@@](O)(c2cc(-c3cccc(-c4ccnc(Nc5cnn(CCN)c5)n4)n3)no2)C1=O [Example 125, (R)-3-(3-(6-(2-((1-(2-Aminoethyl)-1H-pyrazol-4-yl)amino)pyrimidin-4-yl)pyridin-2-yl)isoxazol-5-yl)-3-hydroxy-1-methylpyrrolidin-2-one] | 50 to 500
CCOc1nn(C)cc1Nc1nccc(-c2cccc(-c3cc([C@]4(O)CCN(C)C4=O)on3)n2)n1 [Example 55, (R)-3-(3-(6-(2-((3-Ethoxy-1-methyl-1H-pyrazol-4-yl)amino)pyrimidin-4-yl)pyridin-2-yl)isoxazol-5-yl)-3-hydroxy-1-methylpyrrolidin-2-one] | < 50
CN1CC[C@@](O)(c2cc(-c3cccc(-c4ccnc(N[C@H]5CCC[C@@H](O)C5)n4)n3)no2)C1=O [Example 450, (R)-3-Hydroxy-3-(3-(6-(2-(((1S,3R)-3-hydroxycyclohexyl)amino)pyrimidin-4-yl)pyridin-2-yl)isoxazol-5-yl)-1-methylpyrrolidin-2-one] | 50 to 500
CN1CC[C@@](O)(c2cc(-c3cccc(-c4ccnc(Nc5cn(CC(F)F)nc5OC5CC5)n4)c3)no2)C1=O [Example 413, (R)-3-(3-(3-(2-((3-Cyclopropoxy-1-(2,2-difluoroethyl)-1H-pyrazol-4-yl)amino)pyrimidin-4-yl)phenyl)isoxazol-5-yl)-3-hydroxy-1-methylpyrrolidin-2-one] | 50 to 500
COc1nn(CC(F)F)cc1Nc1nccc(-c2cccc(-n3cc([C@]4(O)CCN(C)C4=O)nn3)n2)n1 [Example 122, (R)-3-(1-(6-(2-((1-(2,2-Difluoroethyl)-3-methoxy-1H-pyrazol-4-yl)amino)pyrimidin-4-yl)pyridin-2-yl)-1H-1,2,3-triazol-4-yl)-3-hydroxy-1-methylpyrrolidin-2-one] | < 50
CN(C)CCOc1ccc(Nc2nccc(-c3cccc(-c4cc([C@]5(O)CCN(C)C5=O)on4)n3)n2)nn1 [Example 130, (R)-3-(3-(6-(2-((6-(2-(Dimethylamino)ethoxy)pyridazin-3-yl)amino)pyrimidin-4-yl)pyridin-2-yl)isoxazol-5-yl)-3-hydroxy-1-methylpyrrolidin-2-one] | 50 to 500
CN1CC[C@@](O)(c2cc(-c3cccc(-c4ccnc(Nc5ccn(C6CC6)n5)n4)n3)no2)C1=O [Example 212, (R)-3-(3-(6-(2-((1-Cyclopropyl-1H-pyrazol-3-yl)amino)pyrimidin-4-yl)pyridin-2-yl)isoxazol-5-yl)-3-hydroxy-1-methylpyrrolidin-2-one] | < 50
Cc1c(Nc2nccc(-c3cccc(-c4cc([C@@]5(O)C(=O)N(C)CC5(F)F)on4)n3)n2)cnn1C [Example 223, (R)-3-(3-(6-(2-((1,5-Dimethyl-1H-pyrazol-4-yl)amino)pyrimidin-4-yl)pyridin-2-yl)isoxazol-5-yl)-4,4-difluoro-3-hydroxy-1-methylpyrrolidin-2-one] | < 50
CN1CC[C@@](O)(c2cc(-c3cccc(-c4ccnc(-n5cc(N)cn5)n4)n3)no2)C1=O [Example 39, (R)-3-(3-(6-(2-(4-Amino-1H-pyrazol-1-yl)pyrimidin-4-yl)pyridin-2-yl)isoxazol-5-yl)-3-hydroxy-1-methylpyrrolidin-2-one] | > 500
CN1CC[C@@](O)(c2cc(-c3cccc(-c4ccnc(Nc5ccn(C6COC6)n5)n4)n3)no2)C1=O [Example 312, (R)-3-Hydroxy-1-methyl-3-(3-(6-(2-((1-(oxetan-3-yl)-1H-pyrazol-3-yl)amino)pyrimidin-4-yl)pyridin-2-yl)isoxazol-5-yl)pyrrolidin-2-one] | < 50
C[C@@H](Nc1nccc(-c2cccc(-c3cc([C@]4(O)CCN(C)C4=O)on3)n2)n1)c1ncc[nH]1 [Example 369, (R)-3-(3-(6-(2-(((R)-1-(1H-Imidazol-2-yl)ethyl)amino)pyrimidin-4-yl)pyridin-2-yl)isoxazol-5-yl)-3-hydroxy-1-methylpyrrolidin-2-one] | > 500
COc1nn(CC(F)F)cc1Nc1nccc(-c2cccc(-c3cc([C@]4(O)CCN(C)C4=O)on3)n2)n1 [Example 58, (R)-3-(3-(6-(2-((1-(2,2-Difluoroethyl)-3-methoxy-1H-pyrazol-4-yl)amino)pyrimidin-4-yl)pyridin-2-yl)isoxazol-5-yl)-3-hydroxy-1-methylpyrrolidin-2-one] | < 50
CCS(=O)(=O)N1CCC(Nc2nccc(-c3cccc(-c4cc([C@]5(O)CCN(C)C5=O)on4)n3)n2)CC1 [Example 470, (R)-3-(3-(6-(2-((1-(Ethylsulfonyl)piperidin-4-yl)amino)pyrimidin-4-yl)pyridin-2-yl)isoxazol-5-yl)-3-hydroxy-1-methylpyrrolidin-2-one] | < 50
COc1nn(CCO)cc1Nc1nccc(-c2cccc(-c3cc([C@]4(O)CCN(C)C4=O)on3)n2)n1 [Example 48, (R)-3-Hydroxy-3-(3-(6-(2-((1-(2-hydroxyethyl)-3-methoxy-1H-pyrazol-4-yl)amino)pyrimidin-4-yl)pyridin-2-yl)isoxazol-5-yl)-1-methylpyrrolidin-2-one] | < 50
Cc1ccncc1Nc1nccc(-c2cccc(-c3cc([C@]4(O)CCN(C)C4=O)on3)n2)n1 [Example 333, (R)-3-Hydroxy-1-methyl-3-(3-(6-(2-((4-methylpyridin-3-yl)amino)pyrimidin-4-yl)pyridin-2-yl)isoxazol-5-yl)pyrrolidin-2-one] | 50 to 500
COC(CNc1nccc(-c2cccc(-c3cc([C@]4(O)CCN(C)C4=O)on3)n2)n1)C(F)(F)F (mixture of isomers) [Example 461, (3R)-3-Hydroxy-1-methyl-3-(3-(6-(2-((3,3,3-trifluoro-2-methoxypropyl)amino)pyrimidin-4-yl)pyridin-2-yl)isoxazol-5-yl)pyrrolidin-2-one] | 50 to 500
